Experimental data reported in US20230346705A1, “NANOPARTICLES FOR TREATING OR PREVENTING A CARDIOMYOPATHY AND ANTHRACYCLINE-CYTOTOXICITY, AND THEIR ADMINISTRATION AS AN AEROSOL” (INSTITUT NATIONAL DE LA SANTE ET DE LA RECHERCHE MEDICALE …, priority 2020, published 2023).

Tests used:
H9C2 cells [1] = assay: Autophagosomes/autolysosomes visualization (GFP-LC3, RFP-GFP-LC3) in H9C2; format: cell-based, Rat
Protocol: Autophagosomes were visualized in GFP-LC3-transduced cells. Autophagic flux was evaluated in RFP-GFP-LC3-transduced cells. Representative images were taken with an epifluorescence microscope (DM600 microscope, Leica) and quantification of yellow puncta (autophagosomes) and red puncta (autolysosomes) was performed using Image J software.

H9C2 cells [2] = assay: Lysosomal pH (Acridine Orange, Lysosensor) in H9C2; format: cell-based, Rat
Protocol: Acridine Orange (Sigma Aldrich), a weak base which accumulates in acidic organelles, was used to label the lysosomes. After treatments, cells were incubated with 5 μM AO for 10 min at 37° C. and washed twice with PBS. Red fluorescence (corresponding to acidic vesicles staining) was measured using a Varioskan Flash Multimode Microplate Reader with excitation/emission at 480/630 nm. Representative pictures were taken with an epifluorescence microscope (DM600 microscope, Leica).
Lysosomal acidification was measured in H9C2 and NRVMs loaded with 2 μM LysoSensor yellow/blue DND-160 (Invitrogen) for 15 min at 37° C. The LysoSensor dye is a ratiometric probe that produces yellow fluorescence in acidic environments, but changes to blue fluorescence in neutral environments. pH calibration was performed following the protocol established by Diwu et al. (Chem Biol. (1999); 6(7):411-418). Briefly, cells were incubated in MES buffer (5 mMNaCl, 115 mMKCl, 1.3 mM MgSO 4, 25 mM MES) supplemented with 10 μM nigericin and 10 μM monensin, for 10 min, with pH adjusted to a range from 3 to 7. The samples were read in a Varioskan Flash Multimode Microplate Reader with excitation at 360 nm. The ratio of emission 440/540 nm was then calculated for each sample.

LC3-II and p62 = assay: Western blot of autophagy markers LC3-II and p62 in H9C2; format: cell-based, Rat; conditions: H9C2, Baf A1 treatment alone
Protocol: H9C2 or NRVMs extracts were prepared by lysing in RIPA buffer (50 mM Tris pH 7.2, 500 mM NaCl, 1% Triton X-100, 1 mM EDTA, 100 mM sodium fluoride, 5 mM sodium metavanadate, 10 mM sodium pyrophosphate) and equal protein amounts were subjected to sodium dodecyl sulfate-polyacrylamide gel electrophoresis (SDS-PAGE) in 10-15% gels depending upon protein molecular weight. After electrophoresis, proteins were transferred to nitrocellulose membranes and incubated with the following antibodies: anti-GAPDH, anti-LC3B, anti-cleaved caspase 3, anti-p-p53 from Cell Signaling Technology, anti-p62 from Abnova, anti-Lamp1, anti-cathepsin D from Abcam. Proteins were detected by chemiluminescence with a Bio-Rad ChemiDoc XRS camera. Relative densities were quantified using the ImageLab 5.2.1 software (Bio-Rad). All data were normalized by internal controls.

[3] = system: neonatal rat ventricular myocytes (NRVMs); assay: Lysosomal pH (Acridine Orange, Lysosensor) in NRVMs; format: cell-based; conditions: doxorubicin 250 nM alone
Protocol: Rat H9C2 cardiomyoblasts (American Type Culture Collection, Rockville, U.S.A.) were grown in DMEM media containing 10% heat-inactivated FBS under 5% CO2 and 95% air at 37° C. H9C2 serve as an animal-free alternative sharing many physiological properties of primary cardiac cells. For neonatal rat ventricular myocytes (NRVMs), rats of 1-2 days old were euthanized and hearts were excised before the atria were removed. Primary culture of NRVMs was subsequently performed as previously described (Manzella et al. 2018; Aging Cell 17(5):e12811). NRVMs were grown in Ham-F12 medium containing 10% heat-inactivated FBS and 10% heat-inactivated HS under 5% CO2 and 95% air at 37° C. […]
Acridine Orange (Sigma Aldrich), a weak base which accumulates in acidic organelles, was used to label the lysosomes. […] Red fluorescence (corresponding to acidic vesicles staining) was measured using a Varioskan Flash Multimode Microplate Reader with excitation/emission at 480/630 nm. […]
Lysosomal acidification was measured in H9C2 and NRVMs loaded with 2 μM LysoSensor yellow/blue DND-160 (Invitrogen) for 15 min at 37° C. The LysoSensor dye is a ratiometric probe that produces yellow fluorescence in acidic environments, but changes to blue fluorescence in neutral environments. pH calibration was performed following the protocol established by Diwu et al. (Chem Biol. (1999); 6(7):411-418). […]

[4] = system: neonatal rat ventricular myocytes (NRVMs); assay: Mitochondrial ROS (mitoSOX) in NRVMs; format: cell-based; conditions: doxorubicin 250 nM alone
Protocol: (§1) Cellular ROS were measured using the fluorescent probe DCFDA assay at a concentration of 5 μM (ThermoFisher Scientific). Fluorescence was quantified using a fluorimeter TECAN infinite proF200 with excitation/emission at 500/530 nm. Mitochondrial ROS were measured by mitoSOX probe (Invitrogen, Molecular Probes). Briefly, the cells were loaded with mitoSOX probe at a final concentration of 5 μM and incubated for 30 min after the indicated treatments. Cells were resuspended in HBSS before reading in Tecan plate reader.

[5] = system: neonatal rat ventricular myocytes (NRVMs); assay: Cell death / toxicity (LDH release) in NRVMs; format: cell-based; conditions: doxorubicin 1 μM alone
Protocol: Rat H9C2 cardiomyoblasts (American Type Culture Collection, Rockville, U.S.A.) were grown in DMEM media containing 10% heat-inactivated FBS under 5% CO2 and 95% air at 37° C. H9C2 serve as an animal-free alternative sharing many physiological properties of primary cardiac cells. For neonatal rat ventricular myocytes (NRVMs), rats of 1-2 days old were euthanized and hearts were excised before the atria were removed. Primary culture of NRVMs was subsequently performed as previously described (Manzella et al. 2018; Aging Cell 17(5):e12811). NRVMs were grown in Ham-F12 medium containing 10% heat-inactivated FBS and 10% heat-inactivated HS under 5% CO2 and 95% air at 37° C. Plasmid transfections with GFP-LC3, GFP-RFP-LC3 or RFP-LAMP1 constructs (Addgene) were performed using Lipofectamine 2000 reagent (Life Technologies) in Opti-MEM™ transfection medium (Gibco). […]
For quantitative assessment of cardiomyocyte necrosis, LDH release in culture medium was measured using the LDH cytotoxicity assay kit according to the manufacturer's instructions (Biovision). Apoptosis was measured in NRVMs by caspase-3 activation using a commercial kit (Biotium) according to the manufacturer's instructions.

H9C2 cells [6] = assay: Cellular ROS (DCFDA) in H9C2; format: cell-based, Rat; conditions: H9C2, 10 h after doxorubicin 1 μM alone
Protocol: as §1

H9C2 cells [7] = assay: Mitochondrial membrane potential (JC-1 probe) in H9C2; format: cell-based, Rat; conditions: H9C2, 10 h after doxorubicin 1 μM alone
Protocol: The mitochondrial membrane potential was evaluated using JC-1 probe (ThermoFisher Scientific). Before the end of treatments, cells were loaded with JC-1 probe at a concentration of 5 μg/ml for 10 min at 37° C. Then, medium was replaced by HBSS and the fluorescence was recorded at 535 nm (excitation wavelength, emission at 590 nm) to measure the formation of red aggregates and at 485 (excitation wavelength, emission at 530 nm) to measure the presence of green monomers, using a fluorimeter TECAN infinite pro F200. Representative images were taken with an epifluorescence microscope (DM600 microscope, Leica).

[8] = H9C2, Bafilomycin A1 100 nM alone

Row | mitochondrial ROS (mitoSOX) [4] | oxidative stress (ROS, DCFDA) (H9C2 cells [6]) | mitochondrial membrane potential (JC-1) (H9C2 cells [7]) | SMILES | autophagic flux, tandem RFP-GFP-LC3 reporter (H9C2 cells [1]; H9C2, Baf A1 alone) | autophagosomes in GFP-LC3-transduced cells (H9C2 cells [1]; H9C2, Baf A1 treatment alone) | Acridine Orange red puncta (lysosomal acidification) (H9C2 cells [2]; [8]) | lysosomal pH (Lysosensor) (H9C2 cells [2]; [8]) | LC3-II and p62 protein levels (LC3-II and p62) | autolysosomes (AL), GFP-RFP-LC3 reporter (H9C2 cells [1]; H9C2, doxorubicin 1 μM alone) | number of autophagosomes (AP), GFP-RFP-LC3 reporter (H9C2 cells [1]; H9C2, doxorubicin 1 μM alone) | AO red fluorescence (H9C2 cells [2]; H9C2, doxorubicin 1 μM alone) | lysosomal pH (lysosensor blue/yellow ratio) (H9C2 cells [2]; H9C2, doxorubicin 1 μM alone) | duration of A.O. red fluorescence alteration [3] | A.O. red fluorescence ([3]; 24 h) | cell death at the dose used in prior experiments [5]
1 |  |  |  | CO/C1=C\C(C)=C\[C@@H](C)[C@@H](O)[C@@H](C)C/C(C)=C/C=C/[C@H](OC)[C@@H]([C@@H](C)[C@@H](O)[C@H](C)[C@@]2(O)C[C@@H](O)[C@H](C)[C@@H](C(C)C)O2)OC1=O [Baf A1, Bafilomycin A1] | accumulation of red+green autophagosomes (AP) and to the reduction of red-only autolysosomes | accumulation of autophagosomes (AP) | loss of Acridine Orange (AO) red puncta | rise in lysosomal pH | increased LC3-II and p62 protein levels |  |  |  |  |  |  | 
2 | mitochondrial ROS increase | accumulation of oxidative stress | drop in mitochondrial membrane potential | COc1cccc2c1C(=O)c1c(O)c3c(c(O)c1C2=O)C[C@@](O)(C(=O)CO)C[C@@H]3O[C@H]1C[C@H](N)[C@H](O)[C@H](C)O1 [doxorubicin] |  |  |  |  |  | accumulation of autolysosomes (AL) | remained unchanged | significantly decreased AO red fluorescence | increased lysosomal pH | maintained until 40 h | decrease in A.O. red fluorescence | rapid cell death in only 24 hours
